The values that follow are results of earlier work, collected in patent US9125814B2, “Biocompatible crosslinked hydrogels, drug-loaded hydrogels and methods of using the same” (Angiotech Pharmaceuticals, Inc., priority 2008, dated 2015).

Broadly, the pKa is the negative logarithm of the acid dissociation constant. Turning to `CCCCN1CCCCC1C(=O)Nc1c(C)cccc1C` (racemic) [racemic bupivacaine, 1-butyl-N-(2,6-dimethylphenyl)piperidine-2-carboxamide], the pKa was approximately 8.1.
